Measurements as given in ChEMBL document CHEMBL1764984 (J Med Chem, 2011).
≈ marks a conversion by molar mass, not a printed value.

Legend:
[1] = molecular target: Mitogen-activated protein kinase 11 (Homo sapiens, UniProt Q15759); assay: Inhibition of P38beta at 10 uM
[2] = molecular target: T1, Epithelial discoidin domain-containing receptor 1 (Homo sapiens, UniProt Q08345); assay: Inhibition of DDR1 at 10 uM
[3] = molecular target: Cyclin-G-associated kinase (Homo sapiens) (UniProt O14976); assay: Inhibition of GAK at 10 uM
[4] = molecular target: Mitogen-activated protein kinase 8 (Homo sapiens) (UniProt P45983); assay: Inhibition of JNK1 at 10 uM
Mitogen-activated protein kinase 8 (Homo sapiens), sequence (P45983 whole entry): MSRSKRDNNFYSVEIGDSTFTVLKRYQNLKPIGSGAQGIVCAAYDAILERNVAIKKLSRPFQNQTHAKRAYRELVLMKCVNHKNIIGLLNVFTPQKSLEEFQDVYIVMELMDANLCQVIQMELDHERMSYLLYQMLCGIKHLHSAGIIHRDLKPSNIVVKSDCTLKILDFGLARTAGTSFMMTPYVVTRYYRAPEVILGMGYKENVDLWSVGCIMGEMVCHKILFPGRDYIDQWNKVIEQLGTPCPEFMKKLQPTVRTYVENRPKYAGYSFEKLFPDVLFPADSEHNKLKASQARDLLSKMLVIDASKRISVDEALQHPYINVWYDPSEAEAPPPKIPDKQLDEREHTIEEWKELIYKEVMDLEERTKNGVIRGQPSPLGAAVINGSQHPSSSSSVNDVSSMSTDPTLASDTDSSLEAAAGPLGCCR

[5] = molecular target: Mitogen-activated protein kinase 9 (Homo sapiens) (UniProt P45984); assay: Inhibition of JNK2 at 10 uM
[6] = molecular target: Serine/threonine-protein kinase NLK (Homo sapiens) (UniProt Q9UBE8); assay: Inhibition of NLK at 10 uM
Serine/threonine-protein kinase NLK (Homo sapiens), sequence (Q9UBE8 whole entry): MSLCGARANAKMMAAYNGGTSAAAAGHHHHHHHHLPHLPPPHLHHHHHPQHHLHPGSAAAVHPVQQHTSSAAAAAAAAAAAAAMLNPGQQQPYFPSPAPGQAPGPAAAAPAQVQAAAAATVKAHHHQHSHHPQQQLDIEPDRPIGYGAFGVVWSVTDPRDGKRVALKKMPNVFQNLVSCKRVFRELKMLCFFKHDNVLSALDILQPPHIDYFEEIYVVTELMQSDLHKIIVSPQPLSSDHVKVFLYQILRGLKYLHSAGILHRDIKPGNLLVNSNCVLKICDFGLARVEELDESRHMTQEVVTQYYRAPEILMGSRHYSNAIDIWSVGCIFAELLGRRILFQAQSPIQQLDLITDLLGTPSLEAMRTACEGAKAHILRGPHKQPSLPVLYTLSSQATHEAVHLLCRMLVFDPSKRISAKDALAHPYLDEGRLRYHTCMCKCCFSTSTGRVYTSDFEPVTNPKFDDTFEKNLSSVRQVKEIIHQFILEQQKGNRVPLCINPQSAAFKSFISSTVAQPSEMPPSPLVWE

[7] = molecular target: T2, Ribosomal protein S6 kinase alpha-3 (Homo sapiens, UniProt P51812); assay: Inhibition of RSK2 at 10 uM
T2 sequence (P51812 whole entry): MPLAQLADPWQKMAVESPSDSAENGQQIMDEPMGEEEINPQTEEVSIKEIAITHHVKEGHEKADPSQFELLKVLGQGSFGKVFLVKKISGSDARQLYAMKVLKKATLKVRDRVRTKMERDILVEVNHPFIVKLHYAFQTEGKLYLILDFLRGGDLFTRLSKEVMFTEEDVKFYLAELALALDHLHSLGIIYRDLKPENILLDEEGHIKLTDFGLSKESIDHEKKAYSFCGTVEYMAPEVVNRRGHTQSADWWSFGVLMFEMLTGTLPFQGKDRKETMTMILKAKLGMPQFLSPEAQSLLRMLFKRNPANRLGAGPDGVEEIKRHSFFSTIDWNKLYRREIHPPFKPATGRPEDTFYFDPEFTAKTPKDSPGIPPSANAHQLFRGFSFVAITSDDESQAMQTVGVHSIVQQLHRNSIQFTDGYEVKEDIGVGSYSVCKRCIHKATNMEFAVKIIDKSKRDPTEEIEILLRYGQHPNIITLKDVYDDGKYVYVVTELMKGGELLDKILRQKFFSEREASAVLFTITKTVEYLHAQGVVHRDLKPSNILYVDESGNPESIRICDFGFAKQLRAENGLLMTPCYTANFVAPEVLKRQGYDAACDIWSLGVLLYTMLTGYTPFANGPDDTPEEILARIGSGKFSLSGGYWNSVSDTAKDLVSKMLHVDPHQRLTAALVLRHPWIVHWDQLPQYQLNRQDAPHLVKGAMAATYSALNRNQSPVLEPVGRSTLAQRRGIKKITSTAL

[8] = molecular target: Ribosomal protein S6 kinase alpha-4 (Homo sapiens, UniProt O75676); assay: Inhibition of RSK4 at 10 uM
[9] = molecular target: T3, Atypical kinase COQ8A, mitochondrial (Homo sapiens, UniProt Q8NI60); assay: Inhibition of ADCK3
[10] = molecular target: T1, Epithelial discoidin domain-containing receptor 1; assay: Inhibition of DDR1
[11] = molecular target: Cyclin-G-associated kinase (Homo sapiens, UniProt O14976); assay: Inhibition of GAK
[12] = molecular target: T2, Ribosomal protein S6 kinase alpha-3; assay: Inhibition of RSK2
[13] = molecular target: Serine/threonine-protein kinase 36 (Homo sapiens, UniProt Q9NRP7); assay: Inhibition of STK36
Serine/threonine-protein kinase 36, sequence (Q9NRP7 whole entry): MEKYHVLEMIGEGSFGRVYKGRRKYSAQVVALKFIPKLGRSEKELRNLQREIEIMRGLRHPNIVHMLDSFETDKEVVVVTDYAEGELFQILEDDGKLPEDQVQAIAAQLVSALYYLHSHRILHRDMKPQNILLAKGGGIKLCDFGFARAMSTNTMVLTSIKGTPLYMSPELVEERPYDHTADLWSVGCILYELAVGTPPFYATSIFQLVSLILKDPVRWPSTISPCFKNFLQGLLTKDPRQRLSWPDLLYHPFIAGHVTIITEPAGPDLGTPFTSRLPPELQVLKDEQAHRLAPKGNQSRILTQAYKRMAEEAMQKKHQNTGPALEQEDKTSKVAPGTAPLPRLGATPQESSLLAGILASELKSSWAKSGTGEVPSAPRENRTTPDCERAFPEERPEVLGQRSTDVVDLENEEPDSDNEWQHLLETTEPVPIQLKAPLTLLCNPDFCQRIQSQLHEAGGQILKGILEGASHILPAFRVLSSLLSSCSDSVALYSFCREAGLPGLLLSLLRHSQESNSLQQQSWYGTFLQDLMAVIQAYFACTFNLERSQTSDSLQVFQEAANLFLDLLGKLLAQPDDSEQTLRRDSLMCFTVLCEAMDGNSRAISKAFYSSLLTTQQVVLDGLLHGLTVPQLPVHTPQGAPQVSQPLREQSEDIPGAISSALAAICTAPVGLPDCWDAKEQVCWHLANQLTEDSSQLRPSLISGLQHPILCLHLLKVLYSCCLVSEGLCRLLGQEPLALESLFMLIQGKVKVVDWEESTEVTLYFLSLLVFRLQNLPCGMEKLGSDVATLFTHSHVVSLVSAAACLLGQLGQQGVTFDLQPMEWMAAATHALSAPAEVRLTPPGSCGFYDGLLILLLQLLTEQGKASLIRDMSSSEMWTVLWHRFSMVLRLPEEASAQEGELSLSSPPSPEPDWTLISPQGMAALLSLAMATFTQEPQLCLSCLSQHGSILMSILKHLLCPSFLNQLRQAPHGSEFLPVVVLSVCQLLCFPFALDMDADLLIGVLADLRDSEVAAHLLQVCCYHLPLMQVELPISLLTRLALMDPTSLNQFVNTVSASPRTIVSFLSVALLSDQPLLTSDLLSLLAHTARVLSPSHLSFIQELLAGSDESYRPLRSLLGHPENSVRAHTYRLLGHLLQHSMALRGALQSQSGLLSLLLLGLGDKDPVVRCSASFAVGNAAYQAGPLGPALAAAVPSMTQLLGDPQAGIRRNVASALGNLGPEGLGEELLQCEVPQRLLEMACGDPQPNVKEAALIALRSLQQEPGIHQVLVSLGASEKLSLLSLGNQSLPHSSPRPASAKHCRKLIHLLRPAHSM

[14] = Aqueous solubility of the compound in phosphate buffer at pH 6.5; type: physicochemical
[15] = Permeability of the compound from apical to basolateral side of human Caco2 cells at 10 uM after 21 days; type: ADME, cell-based; conditions: Caco-2, read-out: permeability
[16] = Permeability of the compound from basolateral to apical side of human Caco2 cells at 10 uM after 21 days; type: ADME, cell-based; conditions: Caco-2, read-out: permeability
[17] = test system: Rattus norvegicus; assay: Inhibition of LPS-induced TNFalpha production in rat serum at 3 mg/kg, po administered 30 mins before LPS challenge measured after […] by ELISA; type: functional
[18] = test system: Rattus norvegicus; assay: Inhibition of LPS-induced IL-6 production in po dosed rat serum administered 30 mins before LPS challenge measured after […] by ELISA; type: functional, organism-based
[19] = test system: Rattus norvegicus; assay: Inhibition of TNF-alpha-induced IL-6 production in po dosed rat plasma administered 30 mins before TNFalpha challenge measured after 2 hrs by ELISA; type: functional, organism-based
[20] = test system: Rattus norvegicus; assay: Analgesic activity in po dosed rat inflammatory yeast hyperalgesia model assessed as increase in tolerance to pressure; type: functional, organism-based
[21] = Plasma protein binding in Hanover-Wistar rat by untrafiltration method; type: ADME, cell-free; conditions: read-out: PPB (converted)
[22] = Plasma protein binding in cynomolgus monkey by untrafiltration method; type: ADME, cell-free, Macaca fascicularis; conditions: read-out: PPB (converted)
[23] = Tmax in Hanover-Wistar rat at 5 mg/kg, po; type: ADME, organism-based; design: dose 5 mg/kg, route oral; conditions: in vivo
[24] = Cmax in Hanover-Wistar rat at 5 mg/kg, po; type: ADME, organism-based; design: dose 5 mg/kg, route oral; conditions: in vivo
[25] = Half life in Hanover-Wistar rat at 5 mg/kg, po; type: ADME, organism-based; design: dose 5 mg/kg, route oral; conditions: in vivo
[26] = AUC (0 to last) in Hanover-Wistar rat at 5 mg/kg, po after 24 hrs; type: ADME, organism-based; design: dose 5 mg/kg, route oral, time 0 - last; conditions: plasma
[27] = Oral bioavailability in Hanover-Wistar rat at 5 mg/kg; type: ADME, organism-based; conditions: in vivo
[28] = Clearance in Hanover-Wistar rat at 5 mg/kg, iv; type: ADME, organism-based; design: dose 5 mg/kg, route intravenous; conditions: in vivo
[29] = Volume of distribution at steady state in Hanover-Wistar rat at 5 mg/kg, iv; type: ADME, organism-based; design: dose 5 mg/kg, route intravenous; conditions: in vivo, read-out: Vdss
[30] = Tmax in cynomolgus monkey at 5 mg/kg, po; type: ADME, organism-based, Macaca fascicularis; design: dose 5 mg/kg, route oral; conditions: in vivo
[31] = Cmax in cynomolgus monkey at 5 mg/kg, po; type: ADME, organism-based, Macaca fascicularis; design: dose 5 mg/kg, route oral; conditions: in vivo
[32] = Half life in cynomolgus monkey at 5 mg/kg, po; type: ADME, organism-based, Macaca fascicularis; design: dose 5 mg/kg, route oral; conditions: in vivo
[33] = AUC (0 to last) in cynomolgus monkey at 5 mg/kg, po after 72 hrs; type: ADME, organism-based, Macaca fascicularis; design: dose 5 mg/kg, route oral, time 0 - last; conditions: plasma
[34] = Oral bioavailability in cynomolgus monkey at 5 mg/kg; type: ADME, organism-based, Macaca fascicularis; conditions: in vivo
[35] = Clearance in cynomolgus monkey at 5 mg/kg, iv; type: ADME, organism-based, Macaca fascicularis; design: dose 5 mg/kg, route intravenous; conditions: in vivo
[36] = Volume of distribution at steady state in cynomolgus monkey at 5 mg/kg, iv; type: ADME, organism-based, Macaca fascicularis; design: dose 5 mg/kg, route intravenous; conditions: in vivo, read-out: Vdss
[37] = Tmax in Beagle dog at 5 mg/kg, po; type: ADME, organism-based, Canis lupus familiaris; design: dose 5 mg/kg, route oral; conditions: in vivo
[38] = Cmax in Beagle dog at 5 mg/kg, po; type: ADME, organism-based, Canis lupus familiaris; design: dose 5 mg/kg, route oral; conditions: in vivo
[39] = Half life in Beagle dog at 5 mg/kg, po; type: ADME, organism-based, Canis lupus familiaris; design: dose 5 mg/kg, route oral; conditions: in vivo
[40] = AUC (0 to last) in Beagle dog at 5 mg/kg, po; type: ADME, organism-based, Canis lupus familiaris; design: dose 5 mg/kg, route oral, time 0 - last; conditions: plasma
[41] = Oral bioavailability in Beagle dog at 5 mg/kg; type: ADME, organism-based, Canis lupus familiaris; conditions: in vivo
[42] = Clearance in Beagle dog at 5 mg/kg, iv; type: ADME, organism-based, Canis lupus familiaris; design: dose 5 mg/kg, route intravenous; conditions: in vivo
[43] = Volume of distribution at steady state in Beagle dog at 5 mg/kg, iv; type: ADME, organism-based, Canis lupus familiaris; design: dose 5 mg/kg, route intravenous; conditions: in vivo, read-out: Vdss
[44] = molecular target: Cytochrome P450 1A2 (Homo sapiens, UniProt P05177); assay: Inhibition of human CYP1A2; type: ADME
Cytochrome P450 1A2, sequence (P05177 whole entry): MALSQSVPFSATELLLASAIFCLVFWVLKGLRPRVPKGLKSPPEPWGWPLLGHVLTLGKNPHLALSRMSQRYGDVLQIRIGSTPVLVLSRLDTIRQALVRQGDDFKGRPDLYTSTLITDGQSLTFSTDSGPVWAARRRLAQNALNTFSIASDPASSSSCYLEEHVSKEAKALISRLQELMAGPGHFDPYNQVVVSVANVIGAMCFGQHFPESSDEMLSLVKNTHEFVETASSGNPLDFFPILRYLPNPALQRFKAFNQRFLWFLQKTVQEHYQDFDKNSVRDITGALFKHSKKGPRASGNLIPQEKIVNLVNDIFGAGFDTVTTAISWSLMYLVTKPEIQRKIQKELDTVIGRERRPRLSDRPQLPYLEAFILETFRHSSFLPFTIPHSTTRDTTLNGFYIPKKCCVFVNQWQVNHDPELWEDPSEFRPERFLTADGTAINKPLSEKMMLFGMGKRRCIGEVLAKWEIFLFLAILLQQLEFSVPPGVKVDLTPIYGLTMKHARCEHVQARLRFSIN

[45] = molecular target: Cytochrome P450 2C9 (Homo sapiens, UniProt P11712); assay: Inhibition of human CYP2C9; type: ADME
[46] = molecular target: Cytochrome P450 2C19 (Homo sapiens, UniProt P33261); assay: Inhibition of human CYP2C19; type: ADME
[47] = molecular target: Cytochrome P450 2D6 (Homo sapiens, UniProt P10635); assay: Inhibition of human CYP2D6; type: ADME
[48] = molecular target: Cytochrome P450 3A4 (Homo sapiens, UniProt P08684); assay: Inhibition of human CYP3A4; type: ADME
[49] = molecular target: T3, Atypical kinase COQ8A, mitochondrial; conditions: 10 uM
Description: Inhibition of ADCK3 at 10 uM

[50] = molecular target: Casein kinase I isoform epsilon (Homo sapiens, UniProt P49674); conditions: 10 uM
Description: Inhibition of CSNK1epsilon at 10 uM

[51] = molecular target: Mitogen-activated protein kinase 10 (Homo sapiens, UniProt P53779); conditions: 10 uM
Mitogen-activated protein kinase 10, sequence (P53779 whole entry): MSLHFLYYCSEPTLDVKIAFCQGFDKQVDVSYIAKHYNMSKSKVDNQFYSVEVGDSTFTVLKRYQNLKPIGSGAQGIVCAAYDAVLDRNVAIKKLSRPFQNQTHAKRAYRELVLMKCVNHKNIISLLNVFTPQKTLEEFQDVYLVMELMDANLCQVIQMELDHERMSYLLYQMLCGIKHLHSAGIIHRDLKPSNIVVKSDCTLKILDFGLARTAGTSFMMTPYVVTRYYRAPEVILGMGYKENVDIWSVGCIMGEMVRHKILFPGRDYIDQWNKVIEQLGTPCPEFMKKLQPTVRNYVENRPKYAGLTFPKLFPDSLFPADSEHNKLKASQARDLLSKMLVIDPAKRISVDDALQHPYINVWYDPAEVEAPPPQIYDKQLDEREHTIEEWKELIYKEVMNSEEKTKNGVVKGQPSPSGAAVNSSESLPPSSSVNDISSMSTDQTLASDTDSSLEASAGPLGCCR
Description: Inhibition of JNK3 at 10 uM

[52] = molecular target: Serine/threonine-protein kinase 36 (Homo sapiens) (UniProt Q9NRP7); conditions: 10 uM
Serine/threonine-protein kinase 36 (Homo sapiens), sequence (Q9NRP7 whole entry): as the sequence (Q9NRP7 whole entry) above
Description: Inhibition of STK36 at 10 uM

T1 sequence (Q08345 whole entry, the tested form may be a part): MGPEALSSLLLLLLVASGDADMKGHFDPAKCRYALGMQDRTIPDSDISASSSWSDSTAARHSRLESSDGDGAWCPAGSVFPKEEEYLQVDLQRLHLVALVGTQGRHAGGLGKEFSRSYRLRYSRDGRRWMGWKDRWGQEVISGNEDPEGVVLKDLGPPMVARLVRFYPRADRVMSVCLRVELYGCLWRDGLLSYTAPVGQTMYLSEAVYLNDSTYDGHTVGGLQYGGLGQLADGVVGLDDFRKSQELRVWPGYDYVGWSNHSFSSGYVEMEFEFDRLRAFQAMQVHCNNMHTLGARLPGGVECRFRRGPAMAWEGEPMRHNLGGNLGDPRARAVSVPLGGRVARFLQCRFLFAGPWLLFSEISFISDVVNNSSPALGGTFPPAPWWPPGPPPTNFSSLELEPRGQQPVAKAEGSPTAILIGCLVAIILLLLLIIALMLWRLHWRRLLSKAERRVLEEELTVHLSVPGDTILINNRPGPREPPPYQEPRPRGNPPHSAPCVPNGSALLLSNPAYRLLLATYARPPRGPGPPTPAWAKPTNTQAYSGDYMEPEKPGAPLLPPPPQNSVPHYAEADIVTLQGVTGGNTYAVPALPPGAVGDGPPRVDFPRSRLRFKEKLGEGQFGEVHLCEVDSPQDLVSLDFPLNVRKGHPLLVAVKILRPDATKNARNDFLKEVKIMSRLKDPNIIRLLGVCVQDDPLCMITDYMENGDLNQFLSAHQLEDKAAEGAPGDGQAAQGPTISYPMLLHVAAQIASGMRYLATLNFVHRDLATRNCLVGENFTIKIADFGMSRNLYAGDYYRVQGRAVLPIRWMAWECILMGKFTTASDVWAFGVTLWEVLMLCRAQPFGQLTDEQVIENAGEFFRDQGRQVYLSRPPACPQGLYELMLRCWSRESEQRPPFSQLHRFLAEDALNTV

Work on `Cn1c(=O)c(Oc2ccc(F)cc2F)cc2cnc(NC(CCO)CCO)nc21` [PAMAPIMOD] yielded an inhibition [1] of over 85%, an inhibition [2] of over 85% and an inhibition [3] of over 85%. It also gave an inhibition [4] of over 85%, an inhibition [5] of over 85% and an inhibition [6] of over 85%. For the same compound, the inhibition [7] was over 85%, the inhibition [8] was over 85% and the Kd [9] was over 1000 nM. For the same compound, the Kd [10] was over 1000 nM, the Kd [11] was over 1000 nM and the Kd [12] was 300 nM. The Kd [13] was over 1000 nM, the solubility [14] was 170 µg/mL (≈ 418 µM) and the Papp A→B at 10 µM [15] was 2.74 ×10⁻⁶ cm/s. For the same compound, the Papp B→A at 10 µM [16] was 22.6 ×10⁻⁶ cm/s, the inhibition in vivo at 3 mg/kg [17] was 77% and the EC50 [18] was 50 nM. For the same compound, the ED50 ([18]; po) was 0.1 mg/kg, the EC50 [19] was 270 nM and the ED50 ([19]; po) was 1.1 mg/kg. For the same compound, the Activity [20] was “Dose-dependent effect”, the EC50 [20] was 4300 nM and the ED50 ([20]; po) was 20.4 mg/kg. It also gave a fraction unbound [21] of 0.171, a fraction unbound [22] of 0.146 and a Tmax [23] of 0.5 h. The Cmax [24] was 1340 ng/mL, the half-life [25] was 4.04 h and the AUC(0-t) at 24 h [26] was 3130 ng·h/mL. For the same compound, the bioavailability [27] was 80.1%, the clearance [28] was 21 mL/min/kg and the Vd [29] was 3.56 L/kg. For the same compound, the Tmax [30] was 1.5 h, the Cmax [31] was 1860 ng/mL and the half-life [32] was 13.8 h. The AUC(0-t) at 72 h [33] was 9410 ng·h/mL, the bioavailability [34] was over 100% and the clearance [35] was 10.8 mL/min/kg. It also gave a Vd [36] of 20.6 L/kg, a Tmax [37] of 0.67 h and a Cmax [38] of 1380 ng/mL. For the same compound, the half-life [39] was 9.18 h, the AUC(0-t) [40] was 5220 ng·h/mL and the bioavailability [41] was 78.2%. It also gave a clearance [42] of 12.5 mL/min/kg, a Vd [43] of 12.7 L/kg and an IC50 [44] of over 29000 nM. It also gave an IC50 [45] of over 29000 nM, an IC50 [46] of over 29000 nM and an IC50 [47] of over 29000 nM. For the same compound, the IC50 [48] was over 29000 nM, the inhibition [49] was over 85% and the inhibition [50] was over 85%. The inhibition [51] was over 85% and the inhibition [52] was over 85%.
